Assays:
Type in all cases: physicochemical
[1] = DVS (Dynamic Vapor Sorption) moisture sorption/desorption, hygroscopicity classification; details: 25 °C; for Change In Mass (%) - ref, Desorption / Change In Mass (%) - ref, Sorption / Change In Mass (%) - ref, Hysteresis: Cycle 1
Procedure: DVS (Dynamic Vapor Sorption): Around 10-20 mg of samples were used to test its moisture sorption/desorption profiles at 25° C. under 0%˜95%˜0% relative humidity (RH) cycle using dm/dt: 0.01%/min equilibrium and a measurement step of 5% RH.
Hygroscopicity Classification: Typical %-moisture gain as a function of increased RH was determined by DVS. Samples went through a dynamic test isothermally at 25° C. The test was divided into 2 processes, one was absorption process, the other was desorption process. RH ranged from 0% to 95% with 5% RH for each step, and when dm/dt<=0.01%, it was assumed the water sorption/desorption equilibrium is reached.

[2] = Solid stability at 40° C./0% RH (closed) and 40° C./75% RH (open), HPLC; details: for 0 day % remaining / 5 day % remaining / 10 day % remaining: solid
Procedure: (§1) Solid stability: 5 mg of 2a was weighed into scintillation vials sealed properly and stored at 40° C./0% RH(closed), 40° C./75% RH(open) under dark conditions to avoid the effect of light on stability. Samples were collected at day 0, 5 and 10 and analyzed by HPLC.
Solid stability: 5 mg of compound was weighed into vials sealed properly and stored at 40° C./0% RH (closed), 40° C./75% RH (open) under dark conditions to avoid the effect of light. Samples were analyzed by HPLC at days 0, 7, and 21.
as §1, with “stability of compound 1a:” for “stability:”, “compound were accurately” for “of 2a was”, “condition” for “conditions”, “should be” for “were”, “10 days” for “10”

[3] = Solution stability in 0.1 N HCl, pH 4.5 buffer and pH 6.8 buffer at 25° C. and 37° C., HPLC; details: summary of the Examples
Procedure: Solution stability: A stock solution of compound (1.0 mg/mL) in MeOH was diluted with 0.1 N HCl, pH 4.5 buffer (acetate) and pH 6.8 buffer to reach constant ionic strength of 0.15 M and the same final concentration (50 μg/mL, 40% MeOH).
A stock solution of 1b and 3b (1.0 mg/mL) in MeOH was diluted with pH 6.8 buffer to reach constant ionic strength of 0.15M and the same final concentration (25 μg/mL, 40% […]).
The solutions were stored at 25° C. and 37° C.

[4] = TGA (Thermal Gravimetric Analysis) weight loss; details: for TGA weight loss (in words): room temperature to 120° C.
Procedure: TGA (Thermal Gravimetric Analysis): Samples of compounds (4˜6 mg) were weighed into the pan, and heated under nitrogen purge using a ramp rate of 20° C./min over the range of 30° C.˜350° C.

In the case of `COc1ccc2c(c1)CCN1Cc3c(ccc(OC)c3OS(=O)(=O)c3cccc(F)c3)C[C@H]21` [Compound 2a], the “Hygroscopicity classification by DVS” value [1] is reported as “non-hygroscopic”, the “Change In Mass (%) - ref, Desorption” value ([1]; Target RH 0.0 %) is reported as −0.00505% and the “Change In Mass (%) - ref, Sorption” value ([1]; Target RH 0.0 %) is reported as 0.00011%. The “Change In Mass (%) - ref, Desorption” value ([1]; Target RH 5.0 %) was −0.0028%, the “Change In Mass (%) - ref, Hysteresis” value ([1]; Target RH 5.0 %) was −0.00426% and the “Change In Mass (%) - ref, Sorption” value ([1]; Target RH 5.0 %) was 0.00146%. The “Change In Mass (%) - ref, Desorption” value ([1]; Target RH 10.0 %) was −0.00101%, the “Change In Mass (%) - ref, Hysteresis” value ([1]; Target RH 10.0 %) was −0.0046% and the “Change In Mass (%) - ref, Sorption” value ([1]; Target RH 10.0 %) was 0.00359%. For the same molecule, the “Change In Mass (%) - ref, Desorption” value ([1]; Target RH 15.0 %) was 0.00000%, the “Change In Mass (%) - ref, Hysteresis” value ([1]; Target RH 15.0 %) was −0.00527% and the “Change In Mass (%) - ref, Sorption” value ([1]; Target RH 15.0 %) was 0.00527%. The “Change In Mass (%) - ref, Desorption” value ([1]; Target RH 20.0 %) was 0.00123%, the “Change In Mass (%) - ref, Hysteresis” value ([1]; Target RH 20.0 %) was −0.0055% and the “Change In Mass (%) - ref, Sorption” value ([1]; Target RH 20.0 %) was 0.00673%. For the same molecule, the “Change In Mass (%) - ref, Desorption” value ([1]; Target RH 25.0 %) was 0.00247%, the “Change In Mass (%) - ref, Hysteresis” value ([1]; Target RH 25.0 %) was −0.00505% and the “Change In Mass (%) - ref, Sorption” value ([1]; Target RH 25.0 %) was 0.00752%. For the same molecule, the “Change In Mass (%) - ref, Desorption” value ([1]; Target RH 30.0 %) was 0.00292%, the “Change In Mass (%) - ref, Hysteresis” value ([1]; Target RH 30.0 %) was −0.00527% and the “Change In Mass (%) - ref, Sorption” value ([1]; Target RH 30.0 %) was 0.00819%. The “Change In Mass (%) - ref, Desorption” value ([1]; Target RH 35.0 %) was 0.00393%, the “Change In Mass (%) - ref, Hysteresis” value ([1]; Target RH 35.0 %) was −0.00449% and the “Change In Mass (%) - ref, Sorption” value ([1]; Target RH 35.0 %) was 0.00841%. For the same molecule, the “Change In Mass (%) - ref, Desorption” value ([1]; Target RH 40.0 %) was 0.0055%, the “Change In Mass (%) - ref, Hysteresis” value ([1]; Target RH 40.0 %) was −0.00314% and the “Change In Mass (%) - ref, Sorption” value ([1]; Target RH 40.0 %) was 0.00864%. For the same molecule, the “Change In Mass (%) - ref, Desorption” value ([1]; Target RH 45.0 %) was 0.00673%, the “Change In Mass (%) - ref, Hysteresis” value ([1]; Target RH 45.0 %) was −0.00202% and the “Change In Mass (%) - ref, Sorption” value ([1]; Target RH 45.0 %) was 0.00875%. The “Change In Mass (%) - ref, Desorption” value ([1]; Target RH 50.0 %) was 0.00763%, the “Change In Mass (%) - ref, Hysteresis” value ([1]; Target RH 50.0 %) was −0.00191% and the “Change In Mass (%) - ref, Sorption” value ([1]; Target RH 50.0 %) was 0.00954%. The “Change In Mass (%) - ref, Desorption” value ([1]; Target RH 55.0 %) was 0.00853%, the “Change In Mass (%) - ref, Hysteresis” value ([1]; Target RH 55.0 %) was −0.00123% and the “Change In Mass (%) - ref, Sorption” value ([1]; Target RH 55.0 %) was 0.00976%. For the same molecule, the “Change In Mass (%) - ref, Desorption” value ([1]; Target RH 60.0 %) was 0.00909%, the “Change In Mass (%) - ref, Hysteresis” value ([1]; Target RH 60.0 %) was −0.0009% and the “Change In Mass (%) - ref, Sorption” value ([1]; Target RH 60.0 %) was 0.00998%. The “Change In Mass (%) - ref, Desorption” value ([1]; Target RH 65.0 %) was 0.00954%, the “Change In Mass (%) - ref, Hysteresis” value ([1]; Target RH 65.0 %) was −0.00056% and the “Change In Mass (%) - ref, Sorption” value ([1]; Target RH 65.0 %) was 0.0101%. For the same molecule, the “Change In Mass (%) - ref, Desorption” value ([1]; Target RH 70.0 %) was 0.01066%, the “Change In Mass (%) - ref, Hysteresis” value ([1]; Target RH 70.0 %) was 0.00000% and the “Change In Mass (%) - ref, Sorption” value ([1]; Target RH 70.0 %) was 0.01066%. The “Change In Mass (%) - ref, Desorption” value ([1]; Target RH 75.0 %) was 0.01234%, the “Change In Mass (%) - ref, Hysteresis” value ([1]; Target RH 75.0 %) was 0.00056% and the “Change In Mass (%) - ref, Sorption” value ([1]; Target RH 75.0 %) was 0.01178%. The “Change In Mass (%) - ref, Desorption” value ([1]; Target RH 80.0 %) was 0.01324%, the “Change In Mass (%) - ref, Hysteresis” value ([1]; Target RH 80.0 %) was 0.00034% and the “Change In Mass (%) - ref, Sorption” value ([1]; Target RH 80.0 %) was 0.0129%. For the same molecule, the “Change In Mass (%) - ref, Desorption” value ([1]; Target RH 85.0 %) was 0.01481%, the “Change In Mass (%) - ref, Hysteresis” value ([1]; Target RH 85.0 %) was 0.0009% and the “Change In Mass (%) - ref, Sorption” value ([1]; Target RH 85.0 %) was 0.01391%. For the same molecule, the “Change In Mass (%) - ref, Desorption” value ([1]; Target RH 90.0 %) was 0.01773%, the “Change In Mass (%) - ref, Hysteresis” value ([1]; Target RH 90.0 %) was 0.00146% and the “Change In Mass (%) - ref, Sorption” value ([1]; Target RH 90.0 %) was 0.01627%. The “Change In Mass (%) - ref, Desorption” value ([1]; Target RH 95.0 %) was 0.02076%, the “Change In Mass (%) - ref, Sorption” value ([1]; Target RH 95.0 %) was 0.02076% and the “moisture picked up (DVS)” value ([1]; at 95% RH) was “about 0.02%”. For the same molecule, the “Solid-state stability (HPLC)” value ([2]; 40° C./0% RH (closed) and 40° C./75% RH (open), dark, up to 10 days) was “substantially stable”, the “0 day % remaining” value ([2]; 40° C. (0% RH, closed)) was 99.65% and the “5 day % remaining” value ([2]; 40° C. (0% RH, closed)) was 101.65%. The “10 day % remaining” value ([2]; 40° C. (0% RH, closed)) was 100.85%, the “0 day % remaining” value ([2]; 40° C./75% RH (open)) was 99.65% and the “5 day % remaining” value ([2]; 40° C./75% RH (open)) was 100.66%. The “10 day % remaining” value ([2]; 40° C./75% RH (open)) was 101.31%, the “Stability compared with other polymorphs (summary)” value [3] was “most stable of the polymorphs” and the “Temperature until which there is no weight loss” value ([4]; DSC and TGA) was “about 150 °C”. For the same molecule, the “TGA weight loss (in words)” value [4] was “almost no weight loss” and the “TGA weight loss (in words)” value ([4]; listed as Hydrochloride salt of compound 1a) was “almost no weight loss”.

From patent US20230279002A1, “Polymorphs of Crystalline Forms of 3,10-dimethoxy-5,8,13,13a-tetrahydro-6H-isoquinolino[3,2-a]isoquinolin-9-yl 3-fluorobenzenesulfonate and Salts Thereof” (CVI Pharmaceuticals Limited, priority 2020, published 2023)
